Drawing on publication PMC7126831 (Bioorganic & Medicinal Chemistry, 2013), this text covers Kinetic mode and IC50 for eight compounds.

For the assay, the target named is SARS-CoV PLpro (Severe acute respiratory syndrome coronavirus, UniProt P0C6U8). The assay is described as follows: biochemical. The class given is biochemical.
As to `COc1cc([C@@H]2CC(=O)c3c(cc(O)c(C/C=C(\C)CCC=C(C)C)c3O)O2)ccc1O` [Compound 8, 3′-O-methyldiplacone], the Kinetic mode entry is recorded as “Mixed (7.1)”.

For `COc1ccc([C@H]2Oc3cc(O)c(C/C=C(\C)CCC=C(C)C)c(O)c3C(=O)[C@@H]2O)cc1O` [Compound 7, 4′-O-methyldiplacol], the Kinetic mode entry is recorded as “Mixed (6.3)”.

As to `COc1cc([C@H]2Oc3cc4c(c(O)c3C(=O)[C@@H]2O)CCC(C)(CCCC(C)(C)O)O4)ccc1O` (stereo partly drawn) [Compound 5, (2R,3R)-3,5-dihydroxy-2-(4-hydroxy-3-methoxyphenyl)-8-(4-hydroxy-4-methylpentyl)-8-methyl-2,3,7,8-tetrahydropyrano[3,2-g]chromen-4(6H)-one], the Kinetic mode result is listed as “Mixed (3.7)”.

As to `CC(C)(O)CCCC1(C)CCc2c(cc3c(c2O)C(=O)C[C@@H](c2ccc(O)c(O)c2)O3)O1` (stereo partly drawn) [Compound 1, (2S)-2-(3,4-dihydroxyphenyl)-5-hydroxy-8-(4-hydroxy-4-methylpentyl)-8-methyl-2,3,7,8-tetrahydropyrano[3,2-g]chromen-4(6H)-one], the Kinetic mode entry is “Mixed (4.8)”.

Compound `COc1cc(C2CC(=O)c3c(cc(O)c(C/C=C(\C)CCC=C(C)C)c3O)O2)cc(OC)c1O` (centres unmarked) [Compound 12, 6-geranyl-4′,5,7-trihydroxy-3′,5′-dimethoxyflavanone] showed an IC50 of 13.9 ± 0.18 µM.

Turning to `COc1cc([C@@H]2CC(=O)c3c(cc4c(c3O)CCC(C)(CCCC(C)(C)O)O4)O2)cc(OC)c1O` (stereo partly drawn) [Compound 4, (2S)-5-hydroxy-2-(4-hydroxy-3,5-dimethoxyphenyl)-8-(4-hydroxy-4-methylpentyl)-8-methyl-2,3,7,8-tetrahydropyrano[3,2-g]chromen-4(6H)-one], the Kinetic mode entry is listed as “Mixed (13.0)”.

For `COc1cc([C@H]2Oc3cc(O)c(C/C=C(\C)CCC=C(C)C)c(O)c3C(=O)[C@@H]2O)ccc1O` [Compound 6, 3′-O-methyldiplacol], the Kinetic mode result is recorded as “Mixed (6.6)”.

As to `COc1cc([C@@H]2CC(=O)c3c(cc4c(c3O)CCC(C)(CCCC(C)(C)O)O4)O2)cc(O)c1OC` (stereo partly drawn) [Compound 3, (2S)-5-hydroxy-2-(5-hydroxy-3,4-dimethoxyphenyl)-8-(4-hydroxy-4-methylpentyl)-8-methyl-2,3,7,8-tetrahydropyrano[3,2-g]chromen-4(6H)-one], the Kinetic mode result was “Mixed (5.0)”.

A word on the IC50: it is the concentration at which inhibition is half-maximal. Low values mean inhibition by little substance, high ones a need for much substance.
